From patent publication US20260317304A1, “TEAD INHIBITORS AND METHODS OF USE” (Sporos BioDiscovery, Inc., priority 2022, published 2026)

How the values were obtained:
Format in all cases: cell-based
MSTO-211H cells = assay: MSTO-211H proliferation and cell viability assay (CTG); details: Homo sapiens, 144 hours
Method: MSTO-211H cells were trypsinised, counted and plated at 1500 cells/well in 200 μl of growth media in 96 well flat bottom tissue culture treated plates. The plated cells were incubated overnight at 37° C., 5% CO2 before being treated with compounds in triplicate for each assay point. 50 μl of the serially diluted compound was added to each well giving a final DMSO concentration of 0.5% per well and a total volume of 250 μl per well. The treated cells were incubated for 144 hours (6 days) at 37° C., 5% CO2. Following compound treatment, the remaining viable cells were detected using the Promega CellTiter-Glo 2.0 assay as follows: 150 μl of media was removed from each of the wells to be assayed and 100 μl of room temperature CellTiter-Glo 2.0 reagent was added. The plate was placed on an orbital shaker at 500 rpm at room temperature for 2 minutes, and then incubated without shaking for a further 10 minutes at room temperature. 150 μl of cell lysate was removed from each well and dispensed into a single well of a white opaque 96 well plate. Luminescence at 545 nm was read using a BMG CLARIOstar plate reader. The luminescent signal was directly proportional to number of viable cells, the percent of viable cells relative to the DMSO control was then calculated for each assay point. Percent viability relative to DMSO control was plotted against compound concentration and a curve fitted with non-linear regression in GraphPad Prism software. EC50 and absolute IC50 values were calculated using GraphPad Prism software as follows: For EC50 values a non-constrained four-parameter logistic curve fit was used (Sigmoidal, 4PL, X is concentration). For Absolute IC50 values the baseline was constrained to Y=0 and top at 100 (Absolute IC50, X is concentration). Area Under the Curve (AUC): Prism computes area-under-the-curve by the trapezoidal method. The analysis sees a fitted curve as simply a series of connected XY points. Prism simply computes the area under the “curve” defined by connecting the points by straight lines. The units of the AUC are the units of the Y axis times units of the X axis.
For EC50 data, the symbol “A” indicates a value of less than 0.2 μM; the symbol “B” indicates a value in the range of from 0.2 μM up to 1 μM; and the symbol “C” indicates a value of greater than 1 μM.

BHY cells = assay: BHY proliferation and cell viability assay (CTG); details: 144 hours
Method: BHY cells were trypsinised, counted and plated at 2500 cells/well in 200 μl of growth media in 96 well flat bottom tissue culture treated plates. The plated cells were incubated overnight at 37° C., 5% CO2 before being treated with compounds in triplicate for each assay point. 50 μl of the serially diluted compound was added to each well giving a final DMSO concentration of 0.5% per well and a total volume of 250 μl per well. The treated cells were incubated for 144 hours (6 days) at 37° C., 5% CO2. Following compound treatment, the remaining viable cells were detected using the Promega CellTiter-Glo 2.0 assay as follows: 150 μl of media was removed from each of the wells to be assayed and 100 μl of room temperature CellTiter-Glo 2.0 reagent was added. The plate was placed on an orbital shaker at 500 rpm at room temperature for 2 minutes, and then incubated without shaking for a further 10 minutes at room temperature. 150 μl of cell lysate was removed from each well and dispensed into a single well of a white opaque 96 well plate. Luminescence at 545 nm was read using a BMG CLARIOstar plate reader. The luminescent signal was directly proportional to number of viable cells, the percent of viable cells relative to the DMSO control was then calculated for each assay point. Percent viability relative to DMSO control was plotted against compound concentration and a curve fitted with non-linear regression in GraphPad Prism software. EC50 and absolute IC50 values are calculated using GraphPad Prism software as follows: For EC50 values, a non-constrained four-parameter logistic curve fit was used (Sigmoidal, 4PL, X is concentration). For Absolute IC50 values the baseline was constrained to Y=0 and top at 100 (Absolute IC50, X is concentration). Area Under the Curve (AUC): Prism computes area-under-the-curve by the trapezoidal method. The analysis sees a fitted curve as simply a series of connected XY points. Prism simply computes the area under the “curve” defined by connecting the points by straight lines. The units of the AUC are the units of the Y axis times units of the X axis. […]

LOU-NH91 cells = assay: LOU-NH91 proliferation and cell viability assay (CTG); details: 216 hours
Method: LOU-NH91 cells were trypsinised, counted and plated at 1000 cells/well in 200 μl of growth media in 96 well flat bottom tissue culture treated plates. The plated cells were incubated overnight at 37° C., 5% CO2 before being treated with compounds in triplicate for each assay point. 50 μl of the serially diluted compound was added to each well giving a final DMSO concentration of 0.5% per well and a total volume of 250 μl per well. The treated cells were incubated for 216 hours (9 days) at 37° C., 5% CO2. Following compound treatment, the remaining viable cells were detected using the Promega CellTiter-Glo 2.0 assay as follows: 150 μl of media was removed from each of the wells to be assayed and 100 μl of room temperature CellTiter-Glo 2.0 reagent was added. The plate was placed on an orbital shaker at 500 rpm at room temperature for 2 minutes, and then incubated without shaking for a further 10 minutes at room temperature. 150 μl of cell lysate was removed from each well and dispensed into a single well of a white opaque 96 well plate. Luminescence at 545 nm was read using a BMG CLARIOstar plate reader. The luminescent signal was directly proportional to number of viable cells, the percent of viable cells relative to the DMSO control was then calculated for each assay point. Percent viability relative to DMSO control was plotted against compound concentration and a curve fitted with non-linear regression in GraphPad Prism software. EC50 and absolute IC50 values were calculated using GraphPad Prism software as follows: For EC50 values a non-constrained four-parameter logistic curve fit was used (Sigmoidal, 4PL, X is concentration). For Absolute IC50 values the baseline was constrained to Y=0 and top at 100 (Absolute IC50, X is concentration). Area Under the Curve (AUC): Prism computes area-under-the-curve by the trapezoidal method. The analysis sees a fitted curve as simply a series of connected XY points. Prism simply computes the area under the “curve” defined by connecting the points by straight lines. The units of the AUC are the units of the Y axis times units of the X axis. […]

SMILES | EC50 (MSTO-211H cells) | EC50 (BHY cells) | EC50 (LOU-NH91 cells)
Cn1cnc(-c2cc(C3(C)NC(=O)NC3=O)ccc2Nc2ccc(C(F)(F)F)cc2)c1 (single isomer, unassigned) [Compound 15, 5-methyl-5-(3-(1-methyl-1H-imidazol-4-yl)-4-((4-(trifluoromethyl)phenyl)amino)phenyl)imidazolidine-2,4-dione] | < 200 nM |  | 
C=CC(=O)Nc1ccc(C)c(Oc2ccc(Cl)cc2)c1 [Compound 1-3, reference compound] | < 200 nM | < 200 nM | < 200 nM
FC(F)(F)c1ccc(CN2CCC(C3CC(Br)=NO3)CC2)cc1 (centres unmarked) [Compound 1-2, reference compound] | < 200 nM | > 1000 nM | < 200 nM
Cn1nnc(-c2cc([C@]3(C)CCNC3=O)ccc2Nc2ccc(C(F)(F)F)cc2)n1 (stereo in doubt) [Compound 20, 3-methyl-3-(3-(2-methyl-2H-tetrazol-5-yl)-4-((4-(trifluoromethyl)phenyl)amino)phenyl) pyrrolidin-2-one] | < 200 nM |  | 
Cn1cnc(-c2cc([C@@]3(C)CCNC3=O)ccc2Nc2ccc(C(F)(F)F)cc2)c1 (single isomer, unassigned) [Compound 5, 3-methyl-3-(3-(1-methyl-1H-imidazol-4-yl)-4-((4-(trifluoromethyl)phenyl)amino)phenyl)pyrrolidin-2-one] | < 200 nM | 200 to 1000 nM | < 200 nM
